Patent publication US20040132751A1, “Use of desoxypeganine for treating central nervous system symptoms resulting from intoxications by psychotrops” (priority 2001, published 2004)

System: rats
Assay: animal experiments: recovery of cognitive abilities in rats after administration of deoxypeganine
Format: in vivo
Details: restoration did not occur, or occurred only considerably later, in untreated control animals

c1ccc2c(c1)CN1CCCC1=N2 [deoxypeganine, 1,2,3,9-tetrahydropyrrolo[2,1-b]quinazoline]
recovery of cognitive abilities: able to bring about a recovery of cognitive abilities
